From PubChem BioAssay AID1919007 (Molecular Pharmacology Branch, DTP, NCI, 2023)
pIC50: −log10 of the molar value. Values joined by “and” are separate entries in the source; they are usually repeats but may differ in a detail not shown here. Equal entries are not always repeated.

System: A498 complex spheroids with HUVEC/MSC, growth
Test: Anticancer human tumor A498 cell line growth inhibition [AhR];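 also: seven day exposure starting three days after spheroid seeding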;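 as to viability, T/C: luminescence signal used as a surrogate for viable cells; luminescence viability scaled so 100% equals DMSO vehicle wells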
Conditions: for viability, T/C: stronger effect = lower value; active = viability on the fitted dose curve at most 10% of control; inactive = the rest
In short: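 Agents were dosed in half-log steps down from roughly clinical Cmax, or from 10 microM where Cmax was unknown, alone and with AhR antagonists. Read-out: percent test/control growth of tumor spheroids containing HUVEC and MSC stromal cells.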

[1] = curve of first compound, second compound 0.1 µM
[2] = curve of first compound, second compound 0.316 µM
[3] = curve of first compound, second compound 1 µM
[4] = curve of first compound, second compound 3.16 µM
[5] = curve of first compound, second compound 10 µM
[6] = second compound 0.1 µM, first compound 0.0316 µM
[7] = second compound 0.1 µM, first compound 0.1 µM
[8] = second compound 0.1 µM, first compound 0.316 µM
[9] = second compound 0.1 µM, first compound 1 µM
[10] = second compound 0.1 µM, first compound 3.16 µM
[11] = second compound 0.1 µM, first compound 10 µM
[12] = second compound 0.316 µM, first compound 0.0316 µM
[13] = second compound 0.316 µM, first compound 0.1 µM
[14] = second compound 0.316 µM, first compound 0.316 µM
[15] = second compound 0.316 µM, first compound 1 µM
[16] = second compound 0.316 µM, first compound 3.16 µM
[17] = second compound 0.316 µM, first compound 10 µM
[18] = second compound 1 µM, first compound 0.0316 µM
[19] = second compound 1 µM, first compound 0.1 µM
[20] = second compound 1 µM, first compound 0.316 µM
[21] = second compound 1 µM, first compound 1 µM
[22] = second compound 1 µM, first compound 3.16 µM
[23] = second compound 1 µM, first compound 10 µM
[24] = second compound 3.16 µM, first compound 0.0316 µM
[25] = second compound 3.16 µM, first compound 0.1 µM
[26] = second compound 3.16 µM, first compound 0.316 µM
[27] = second compound 3.16 µM, first compound 1 µM
[28] = second compound 3.16 µM, first compound 3.16 µM
[29] = second compound 3.16 µM, first compound 10 µM
[30] = second compound 10 µM, first compound 0.0316 µM
[31] = second compound 10 µM, first compound 0.1 µM
[32] = second compound 10 µM, first compound 0.316 µM
[33] = second compound 10 µM, first compound 1 µM
[34] = second compound 10 µM, first compound 3.16 µM
[35] = second compound 10 µM, first compound 10 µM

CC(C)c1c(-c2ccccc2)nc2c(C#N)c[nH]n2c1=O + Cc1ccccc1N=Nc1ccc(NC(=O)c2ccnn2C)c(C)c1
inactive: viability, T/C [6] 78.9% | viability, T/C [7] 84.9% | viability, T/C [8] 83.2% | viability, T/C [9] 81.8% | viability, T/C [10] 80.2% | viability, T/C [11] 84.2% | viability, T/C [12] 87.7% | viability, T/C [13] 88.5% | viability, T/C [14] 89.7% | viability, T/C [15] 85.9% | viability, T/C [16] 82.8% | viability, T/C [17] 89.5% | viability, T/C [18] 80.1% | viability, T/C [19] 74.6% | viability, T/C [20] 86.8% | viability, T/C [21] 78.1% | viability, T/C [22] 76.7% | viability, T/C [23] 77.5% | viability, T/C [24] 77.2% | viability, T/C [25] 79.2% | viability, T/C [26] 79.6% | viability, T/C [27] 76.8% | viability, T/C [28] 72.7% | viability, T/C [29] 78.1% | viability, T/C [30] 80.2% | viability, T/C [31] 81.7% | viability, T/C [32] 74.3% | viability, T/C [33] 81% | viability, T/C [34] 71.8% | viability, T/C [35] 74.1%
< 5.00: pIC50 [1] | pIC50 [2] | pIC50 [3] | pIC50 [4] | pIC50 [5]

Nc1ncn(C2CC(O)C(CO)O2)c(=O)n1 (centres undefined)
inactive: viability, T/C (compound 0.00316 µM) 95.4% and 108% and 105% | viability, T/C (compound 0.01 µM) 101% and 108% and 107% | viability, T/C (compound 0.0316 µM) 94% and 91.7% and 104% | viability, T/C (compound 0.1 µM) 87.1% and 96.7% and 97.3% | viability, T/C (compound 0.316 µM) 97.1% and 81.1% and 97.3% | viability, T/C (compound 1 µM) 72.5% and 71.4% and 83.5%
< 6.00: pIC50 (curve of compound)

CC[C@@]1(O)C(=O)OCc2c1cc1n(c2=O)Cc2cc3c(CN(C)C)c(O)ccc3nc2-1 + Cc1cncc(-c2nc(NCCc3c[nH]c4ccccc34)c3ncn(C(C)C)c3n2)c1
inactive: viability, T/C (second compound 0.1 µM, first compound 0.000316 µM) 87.4% | viability, T/C (second compound 0.1 µM, first compound 0.001 µM) 92.5% | viability, T/C (second compound 0.1 µM, first compound 0.00316 µM) 90.1% | viability, T/C (second compound 0.1 µM, first compound 0.01 µM) 84.7% | viability, T/C [6] 72.9% | viability, T/C [7] 69.8% | viability, T/C (second compound 0.316 µM, first compound 0.000316 µM) 88.7% | viability, T/C (second compound 0.316 µM, first compound 0.001 µM) 92.2% | viability, T/C (second compound 0.316 µM, first compound 0.00316 µM) 91.1% | viability, T/C (second compound 0.316 µM, first compound 0.01 µM) 83.1% | viability, T/C [12] 83.3% | viability, T/C [13] 72.9% | viability, T/C (second compound 1 µM, first compound 0.000316 µM) 89.2% | viability, T/C (second compound 1 µM, first compound 0.001 µM) 92.5% | viability, T/C (second compound 1 µM, first compound 0.00316 µM) 98.3% | viability, T/C (second compound 1 µM, first compound 0.01 µM) 76.5% | viability, T/C [18] 77% | viability, T/C [19] 66.6% | viability, T/C (second compound 3.16 µM, first compound 0.000316 µM) 61.4% | viability, T/C (second compound 3.16 µM, first compound 0.001 µM) 72.9% | viability, T/C (second compound 3.16 µM, first compound 0.00316 µM) 65.8% | viability, T/C (second compound 3.16 µM, first compound 0.01 µM) 60.5% | viability, T/C [24] 56.5% | viability, T/C [25] 53.1%
active: viability, T/C (second compound 10 µM, first compound 0.000316 µM) 4.54% | viability, T/C (second compound 10 µM, first compound 0.001 µM) 6% | viability, T/C (second compound 10 µM, first compound 0.00316 µM) 7.18% | viability, T/C (second compound 10 µM, first compound 0.01 µM) 5.32% | viability, T/C [30] 6.79% | viability, T/C [31] 8.73%
< 7.00: pIC50 [1] | pIC50 [2] | pIC50 [3] | pIC50 [4]
> 9.50: pIC50 [5]

COc1ccc([C@@H](O)c2cc(-c3ncnc4cc(N5CCOCC5)ccc34)c(F)cc2Cl)nn1 + CC(CO)NC(=O)c1cc(-c2ccc(Cl)cc2)nn(-c2cnn(C)c2)c1=O
7.13: pIC50 [5]
active: viability, T/C [35] 7.61%
6.51: pIC50 [2] | pIC50 [3]
6.64: pIC50 [4]
inactive: viability, T/C [6] 83.6% | viability, T/C [7] 79.5% | viability, T/C [8] 49.9% | viability, T/C [9] 26.2% | viability, T/C [10] 15.1% | viability, T/C [11] 9.67% | viability, T/C [12] 78% | viability, T/C [13] 73% | viability, T/C [14] 48.4% | viability, T/C [15] 23.9% | viability, T/C [16] 13.6% | viability, T/C [17] 8.99% | viability, T/C [18] 77.7% | viability, T/C [19] 73.2% | viability, T/C [20] 48.7% | viability, T/C [21] 22.8% | viability, T/C [22] 14.3% | viability, T/C [23] 9.42% | viability, T/C [24] 70.9% | viability, T/C [25] 67.9% | viability, T/C [26] 42.7% | viability, T/C [27] 20.8% | viability, T/C [28] 12.9% | viability, T/C [29] 10% | viability, T/C [30] 55.3% | viability, T/C [31] 49.3% | viability, T/C [32] 33.1% | viability, T/C [33] 21.1% | viability, T/C [34] 12.3%
6.46: pIC50 [1]

Cn1ncnc1C1c2n[nH]c(=O)c3cc(F)cc(c23)NC1c1ccc(F)cc1 (centres undefined)
< 7.00: pIC50 (curve of compound)
inactive: viability, T/C (compound 0.000316 µM) 105% and 97.2% and 110% | viability, T/C (compound 0.001 µM) 117% and 105% and 114% | viability, T/C (compound 0.00316 µM) 109% and 102% and 103% | viability, T/C (compound 0.01 µM) 108% and 101% and 100% | viability, T/C (compound 0.0316 µM) 112% and 106% and 103% | viability, T/C (compound 0.1 µM) 107% and 98.3% and 85.8%

CC(C)c1c(-c2ccccc2)nc2c(C#N)c[nH]n2c1=O + CC(CO)NC(=O)c1cc(-c2ccc(Cl)cc2)nn(-c2cnn(C)c2)c1=O
< 5.00: pIC50 [1] | pIC50 [2] | pIC50 [3] | pIC50 [4] | pIC50 [5]
inactive: viability, T/C [6] 94.6% | viability, T/C [7] 93.3% | viability, T/C [8] 93.3% | viability, T/C [9] 96.4% | viability, T/C [10] 101% | viability, T/C [11] 103% | viability, T/C [12] 91.9% | viability, T/C [13] 90.5% | viability, T/C [14] 94.6% | viability, T/C [15] 83.1% | viability, T/C [16] 87.3% | viability, T/C [17] 88.5% | viability, T/C [18] 85.8% | viability, T/C [19] 92.6% | viability, T/C [20] 90.7% | viability, T/C [21] 76.5% | viability, T/C [22] 87.1% | viability, T/C [23] 90.7% | viability, T/C [24] 81.5% | viability, T/C [25] 86.1% | viability, T/C [26] 96.2% | viability, T/C [27] 75.3% | viability, T/C [28] 75.9% | viability, T/C [29] 81.5% | viability, T/C [30] 61.8% | viability, T/C [31] 63.3% | viability, T/C [32] 70.5% | viability, T/C [33] 58.9% | viability, T/C [34] 64% | viability, T/C [35] 72.2%

CC1COCCN1c1cc(C2(S(C)(=N)=O)CC2)nc(-c2ccnc3[nH]ccc23)n1 (centres undefined) + CC(CO)NC(=O)c1cc(-c2ccc(Cl)cc2)nn(-c2cnn(C)c2)c1=O
5.92: pIC50 [4]
5.75: pIC50 [1]
5.79: pIC50 [2]
5.89: pIC50 [3]
6.11: pIC50 [5]
inactive: viability, T/C [6] 96.6% | viability, T/C [7] 94.9% | viability, T/C [8] 85.2% | viability, T/C [9] 66% | viability, T/C [10] 34.2% | viability, T/C [11] 18.2% | viability, T/C [12] 88.7% | viability, T/C [13] 89.6% | viability, T/C [14] 84% | viability, T/C [15] 65.1% | viability, T/C [16] 30.2% | viability, T/C [17] 19.7% | viability, T/C [18] 84.3% | viability, T/C [19] 86.8% | viability, T/C [20] 87% | viability, T/C [21] 53.5% | viability, T/C [22] 30.6% | viability, T/C [23] 17.1% | viability, T/C [24] 80.6% | viability, T/C [25] 81.8% | viability, T/C [26] 78.5% | viability, T/C [27] 52.1% | viability, T/C [28] 29.1% | viability, T/C [29] 16.5% | viability, T/C [30] 70.1% | viability, T/C [31] 65.7% | viability, T/C [32] 62.8% | viability, T/C [33] 46.9% | viability, T/C [34] 25.8% | viability, T/C [35] 17.7%

CC1COCCN1c1cc(C2(S(C)(=N)=O)CC2)nc(-c2ccnc3[nH]ccc23)n1 (centres undefined) + Cc1ccccc1N=Nc1ccc(NC(=O)c2ccnn2C)c(C)c1
inactive: viability, T/C [6] 84.6% | viability, T/C [7] 85.4% | viability, T/C [8] 84.3% | viability, T/C [9] 66% | viability, T/C [10] 46.6% | viability, T/C [11] 23.2% | viability, T/C [12] 101% | viability, T/C [13] 90.5% | viability, T/C [14] 88.3% | viability, T/C [15] 68.1% | viability, T/C [16] 38.9% | viability, T/C [17] 25.7% | viability, T/C [18] 81.7% | viability, T/C [19] 78.2% | viability, T/C [20] 82.2% | viability, T/C [21] 61.7% | viability, T/C [22] 38.2% | viability, T/C [23] 21.2% | viability, T/C [24] 83% | viability, T/C [25] 82.4% | viability, T/C [26] 77.2% | viability, T/C [27] 64% | viability, T/C [28] 38.5% | viability, T/C [29] 24.2% | viability, T/C [30] 82.6% | viability, T/C [31] 81.5% | viability, T/C [32] 78.7% | viability, T/C [33] 67.8% | viability, T/C [34] 39% | viability, T/C [35] 25%
5.74: pIC50 [3]
5.69: pIC50 [5]
5.68: pIC50 [2]
5.60: pIC50 [1]
5.73: pIC50 [4]
